Experiment: Measurement of stability (high-temperature, high-humidity and photostability tests; HPLC impurity content)
Type: physicochemical
Conditions: for total impurity / purity: 210 nm
Description: An appropriate amount of the Complex (IA) sample (prepared from example 2) was weighed and tiled on a clean culture dish at a thickness of ≤5 mm, and analyzed under the following conditions:
The test sample was placed under a high temperature condition (60±2° C.) for 10 d, the relative indexes were measured at the fifth and tenth days. […] If no significant change, the test at 40° C. was not necessary.
The test sample was placed under a 25° C. and RH 90%±5% condition for 10 d, and the sample were measured at the fifth and tenth days. Test items should include a moisture-absorption weight gain. If weighting percentage of moisture absorption was more than 5%, the test should be carried out under a 25° C. and RH 75%±5% condition using the same method; If weighting percentage of moisture absorption was less than 5%, and other inspection items met the requirements, the test was not necessary. The constant humidity condition can be realized by adopting constant temperature humidity chamber or placing a saturated saline solution under a closed container. […]
The test sample was placed in light box or other suitable light vessel under a 4500 Lx±500 Lx of illuminance condition for 10 d, and the sample were measured at the fifth and tenth days.
The impurity content of the sample was calculated by the normalization method of peak area using an HPLC chromatographic instrument under the above condition, the analytic conditions were shown below:
The detection was performed on Agilent 1200DAD high pressure liquid chromatography spectrometer (Zorbax Eclipse Plus C18 150×4.6 mm chromatographic column).
The test condition of HPLC: the run time was 30 minutes (min); the column temperature was 35° C.; the detection was carried out at the wavelength of 210 nm and 225 nm;
Mobile phase: phase C: acetonitrile phase D: ultrapure water flow rate: 1.0 mL/min.
Gradient elution, the ratio of mobile phase was shown as table B.

[1] = high humidity (25° C., RH 90%±5%), 5 d, HPLC
[2] = high humidity (25° C., RH 90%±5%), 10 d, HPLC
[3] = high-temperature (60±2° C.), 5 d, HPLC
[4] = high-temperature (60±2° C.), 10 d, HPLC
[5] = illumination (4500 Lx±500 Lx), 5 d, HPLC
[6] = illumination (4500 Lx±500 Lx), 10 d, HPLC

total impurity (0 d, HPLC peak area normalization): 0.25% | purity (0 d, HPLC): 99.75% | appearance (high humidity (25° C., RH 90%±5%), 5 d): white bulk | purity [1]: 99.70% | total impurity [1]: 0.30% | appearance (high humidity (25° C., RH 90%±5%), 10 d): white bulk | purity [2]: 99.78% | total impurity [2]: 0.22% | purity [3]: 95.03% | total impurity [3]: 4.97% | purity [4]: 92.16% | total impurity [4]: 7.84% | stability (summary in words) (high-temperature, high humidity or illumination for 10 d, listed as compound (I-n) in amorphism form): poor stability | purity [5]: 99.69% | total impurity [5]: 0.31% | purity [6]: 99.72% | total impurity [6]: 0.28%
Structure (SMILES): CCOc1ccc(Cc2cc([C@]34OC[C@]([C@@H](C)O)(O3)[C@@H](O)[C@H](O)[C@H]4O)ccc2Cl)cc1 [compound (I-n) amorphism, (1R,2S,3S,4R,5S)-5-(4-chloro-3-(4-ethoxybenzyl)phenyl)-1-((1R)-1-hydroxyethyl)-6,8-dioxabicyclo[3.2.1]octane-2,3,4-triol]
